From the supplement of paper PMC10307832

How the values were obtained:
Test in all cases: relative viability (nuclei count vs DMSO), 5 days (fraction); higher = more cells survive
BGJ398 = compound: CCN1CCN(c2ccc(Nc3cc(N(C)C(=O)Nc4c(Cl)c(OC)cc(OC)c4Cl)ncn3)cc2)CC1 [BGJ398]
Outline: (§1)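 MetaXpress counted nuclei in 4× images of lung cancer cell lines that had been fixed, permeabilised and Hoechst-stained in one step. Before that, cells in 1536-well plates were kept overnight at 37 °C, pinned with five √10-spaced library-drug doses on vehicle-anchored plates, and cultured 5 days without medium change. Viability takes treated-well nuclei over vehicle-well nuclei and uses the median across plates. Plates were accepted only at control CV below 25% and at least one doubling.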

[1] = compound: C1=CC2=NC=CN=C2C=C1/C=C/3\C(=O)NC(=O)S3
Outline: as §1

BGJ398 + Pemetrexed = compound: CCN1CCN(c2ccc(Nc3cc(N(C)C(=O)Nc4c(Cl)c(OC)cc(OC)c4Cl)ncn3)cc2)CC1 [BGJ398] + Nc1nc2[nH]cc(CCc3ccc(C(=O)N[C@@H](CCC(=O)O)C(=O)O)cc3)c2c(=O)[nH]1 [Pemetrexed] (partner 0.2 µM)
Outline: (§2)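 Dosing by pin tool came one day after lung cancer cell lines were seeded in 1536-well plates, using either one drug or a fixed anchor-drug dose plus five library-drug doses (not always all listed) in √10 steps. After 5 days, nuclei were counted on 4× images. Relative viability is treated-well nuclei count divided by vehicle-well nuclei count, and values are medians of duplicate plates.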

[2] = compound: C1=CC2=NC=CN=C2C=C1/C=C/3\C(=O)NC(=O)S3 + COc1cccc2cc(-c3nc([C@H]4CC[C@H](C(=O)O)CC4)n4ncnc(N)c34)[nH]c12 [OSI-027] (partner 0.5 µM)
Outline: as §2

Row | Cell Line | relative viability (BGJ398; 0.01 µM) | relative viability (BGJ398; 0.03162 µM) | relative viability (BGJ398; 0.1 µM) | relative viability (BGJ398; 0.3162 µM) | relative viability (BGJ398; 1 µM) | relative viability ([1]; 0.02 µM) | relative viability ([1]; 0.06325 µM) | relative viability ([1]; 0.2 µM) | relative viability ([1]; 0.6325 µM) | relative viability ([1]; 2 µM) | relative viability (BGJ398 + Pemetrexed; first compound 0.01 µM) | relative viability (BGJ398 + Pemetrexed; first compound 0.03162 µM) | relative viability (BGJ398 + Pemetrexed; first compound 0.1 µM) | relative viability (BGJ398 + Pemetrexed; first compound 0.3162 µM) | relative viability (BGJ398 + Pemetrexed; first compound 1 µM) | relative viability ([2]; first compound 0.02 µM) | relative viability ([2]; first compound 0.06325 µM) | relative viability ([2]; first compound 0.2 µM) | relative viability ([2]; first compound 0.6325 µM) | relative viability ([2]; first compound 2 µM)
1 | HCC-44 | 0.998 | 0.986 | 0.987 | 0.993 | 0.826 | 0.895 | 1.03 | 0.991 | 0.965 | 0.745 | 0.6 | 0.67 | 0.656 | 0.649 | 0.654 | 0.775 | 0.445 | 0.656 | 0.463 | 0.225
2 | HCC-78 | 0.881 | 0.911 | 0.933 | 1.02 | 0.86 | 0.9 | 0.845 | 1.04 | 0.979 | 0.507 | 1.02 | 0.885 | 0.88 | 0.91 | 0.896 | 0.362 | 0.408 | 0.352 | 0.347 | 0.279
3 | HCC-366 | 1.01 | 1.01 | 1.07 | 1.08 | 0.974 | 0.979 | 0.787 | 1.01 | 0.942 | 0.985 | 0.161 | 0.168 | 0.163 | 0.172 | 0.132 | 0.727 |  | 1.06 | 0.823 | 0.322
4 | HCC-827 | 0.932 |  | 1.01 | 0.962 | 1.04 | 0.989 | 0.984 | 1.02 | 1.04 | 1.05 | 0.254 |  | 0.277 | 0.184 | 0.272 | 0.771 | 0.725 | 0.765 | 0.741 | 0.779
5 | HOP-62 | 0.983 | 1.07 | 1.07 | 0.982 | 1.02 | 0.929 | 0.945 | 1.06 | 1 | 0.943 | 0.375 | 0.382 | 0.335 | 0.36 | 0.379 | 0.742 | 1.02 | 0.833 | 0.827 | 0.607
6 | IA-LM | 0.918 | 1.05 | 0.974 | 0.875 | 0.901 | 0.943 | 1.09 | 0.926 | 0.997 | 0.99 |  |  |  |  |  |  |  |  |  | 
7 | LC-2-ad | 0.977 | 1.03 | 0.977 | 0.994 | 0.906 | 0.973 | 0.987 | 1.11 | 0.917 | 0.758 | 0.292 | 0.285 | 0.245 | 0.271 | 0.31 | 0.893 | 0.752 | 0.807 | 0.757 | 0.454
8 | LCLC-97TM1 | 0.778 | 1.09 | 1.02 | 0.962 | 0.97 | 0.822 | 1.02 | 1.03 | 0.906 | 0.214 | 0.172 | 0.236 | 0.161 | 0.174 | 0.162 | 0.556 | 0.522 | 0.436 | 0.461 | 0.145
9 | LCLC-103H | 0.984 | 0.903 | 1.06 | 0.792 | 0.79 | 0.957 | 1.05 | 0.969 | 0.918 | 0.852 | 0.459 | 0.503 | 0.401 | 0.494 | 0.541 | 0.431 | 0.493 | 0.489 | 0.377 | 0.308
10 | LK-2 | 0.867 | 0.776 | 0.638 | 0.399 | 0.263 | 1.02 | 1.06 | 1.14 | 0.896 | 0.566 | 0.213 | 0.194 | 0.114 | 0.157 | 0.12 | 0.225 | 0.23 | 0.201 | 0.184 | 0.147
11 | LOU-NH91 | 0.935 | 0.883 | 0.971 | 0.771 | 0.931 | 0.997 | 0.988 | 1.01 | 0.978 | 0.805 | 0.375 | 0.407 | 0.408 | 0.376 | 0.381 | 0.726 | 0.767 | 0.673 | 0.681 | 0.464
12 | LU99A | 0.884 | 0.95 | 0.89 | 0.908 | 0.792 | 1.07 | 1.11 | 0.979 | 0.871 | 0.518 | 0.176 | 0.182 | 0.169 | 0.224 | 0.204 | 0.298 | 0.332 | 0.295 | 0.293 | 0.218
13 | LXF-289 | 0.949 | 0.948 | 0.944 | 0.875 | 0.942 | 0.996 | 0.95 | 0.956 | 0.97 | 1.01 | 0.923 | 0.849 | 0.88 | 0.801 | 0.923 | 0.744 | 0.756 | 0.788 | 0.804 | 0.395
14 | NCI-H23 | 0.994 | 0.974 | 0.966 | 0.937 | 0.979 | 1.01 | 1.21 | 1.1 | 0.876 | 0.753 | 0.735 | 0.652 | 0.528 | 0.715 | 0.541 | 0.518 | 0.58 | 0.661 | 0.618 | 0.27
15 | NCI-H727 | 0.868 | 0.879 | 0.917 | 0.957 | 0.917 | 0.931 | 0.856 | 1.13 | 0.888 | 0.558 |  |  |  |  |  | 0.624 | 0.598 | 0.686 | 0.575 | 0.343
16 | NCI-H1299 | 0.99 | 1.05 | 1 | 0.993 | 1.02 | 0.996 | 1.04 | 1.02 | 1 | 1.01 |  |  |  |  |  |  |  |  |  | 
17 | NCI-H1623 | 1.08 | 0.805 | 1.05 | 0.908 | 1.03 | 0.936 | 0.806 | 0.909 | 0.957 | 0.786 |  |  |  |  |  | 0.411 | 0.415 | 0.419 | 0.421 | 0.253
18 | NCI-H1703 | 0.872 | 1.04 | 1.02 | 0.806 | 0.967 | 1.09 | 1.33 | 0.942 | 0.864 | 0.736 |  |  |  |  |  |  |  |  |  | 
